From the METLIN SMRT retention time set (Domingo-Almenara et al. 2019)

Assay: gradient 5% acetonitrile 3 min, to 50% in 2 min, to 85% in 15 min, held 3 min, 100 µL/min
Details: column: Zorbax Extend-C18 2.1 x 50 mm; eluents: water / acetonitrile, 0.1% formic acid
Method in brief: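 The mobile phases were water and acetonitrile, each with 0.1% formic acid, pumped at 100 μL/min through a Zorbax Extend-C18 column (2.1 × 50 mm, 1.8 μm). Pure standards were injected as mixtures of ~100 molecules and detected by a quadrupole time-of-flight mass spectrometer in positive and negative ionization mode. Retention time came from computationally picked adduct peaks, each inspected by hand.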

Cc1cc(C2CCCN2C(=O)c2cc(F)c(F)cc2Cl)no1 (configuration not stated)
RP-LC retention time: 832 s

COc1ccc(CC2C(=O)Nc3ccc(Cl)cc32)cc1 (configuration not stated)
RP-LC retention time: 888 s

Cc1ccc(-c2cn3ccn(-c4ccc(F)c(Cl)c4)c(=O)c3n2)cc1
RP-LC retention time: 927 s

Cc1noc(-c2ccnc(-n3cnc(C(=O)NCc4cccc(Cl)c4)c3)c2)n1
RP-LC retention time: 760 s

Cc1ccc(C(=O)Nc2nc(-c3ccc4c(c3)N(C)C(=O)CO4)cs2)cc1
RP-LC retention time: 952 s

C[C@@H]1c2ccccc2CCN1C(=O)Cc1ccccc1F
RP-LC retention time: 950 s

Cc1ccc(-c2noc(Cn3nc(-c4ccccc4F)ccc3=O)n2)cc1
RP-LC retention time: 1050 s

O=C(CSc1ccc(N2CCCC(C(=O)NC3CC3)C2)nn1)NCc1ccc(F)cc1 (configuration not stated)
RP-LC retention time: 622 s

CCn1c(=O)sc2cc(S(=O)(=O)N3CCC(C(=O)Nc4ccc(C(C)C)cc4)CC3)ccc21
RP-LC retention time: 985 s

COC(=O)c1cc(C)nc2c1c(=O)n(Cc1c(F)cccc1Cl)c(=O)n2C
RP-LC retention time: 965 s

CCCCNC(=O)C1CC(=O)N(CCc2c[nH]c3ccc(C)cc23)C1 (configuration not stated)
RP-LC retention time: 762 s

CCc1nc(-c2csc(S(=O)(=O)N3CCCC(C(=O)Nc4ccccc4F)C3)c2)no1 (configuration not stated)
RP-LC retention time: 1010 s

CN(C)c1ccc2c(c1)CN(C(=O)c1cc(C3CC3)[nH]n1)CCO2
RP-LC retention time: 588 s

CCOC(=O)C1=C(CN(C)Cc2ccccc2)NC(=O)NC1c1cccc(OC)c1OC (configuration not stated)
RP-LC retention time: 659 s

Cc1ccc(-c2csc(NC3OC(=O)c4ccccc43)n2)cc1C (configuration not stated)
RP-LC retention time: 808 s

O=C(Cn1cnc2c(nc3n2CCCCC3)c1=O)N1CCN(Cc2ccc3c(c2)OCO3)CC1
RP-LC retention time: 588 s

CSc1ncccc1C(=O)Nc1cccc(OCc2nnc(-c3ccc(Cl)cc3)o2)c1
RP-LC retention time: 1010 s

COc1ccc(CN2CC3(CCN(S(=O)(=O)c4cccnc4)CC3)C2=O)cc1
RP-LC retention time: 750 s

Cc1oc(C2CCN(C(=O)Nc3ccccc3Cl)CC2)nc1C(=O)N(C)C
RP-LC retention time: 691 s

COC1CCC12CCN(C(=O)C1CCCCC1)CC2 (configuration not stated)
RP-LC retention time: 903 s

CS(=O)(=O)Nc1cccc(C2=NN(S(C)(=O)=O)C(c3cccc([N+](=O)[O-])c3)C2)c1 (configuration not stated)
RP-LC retention time: 740 s

COc1ccccc1-c1nnc(-c2ccc(OC)c(S(=O)(=O)N3CCCCCC3)c2)o1
RP-LC retention time: 1010 s

O=C(CSc1nnc2scc(-c3ccc(Cl)cc3)n12)NCC1CCCO1 (configuration not stated)
RP-LC retention time: 675 s

COc1ccc(Cl)cc1S(=O)(=O)Nc1ccc2nc(N3CCN(C)CC3)cc(C(=O)O)c2c1
RP-LC retention time: 604 s

O=C(Cn1cnc2nc(N3CCCC(C(=O)NC4CC4)C3)sc2c1=O)Nc1cccc(Cl)c1 (configuration not stated)
RP-LC retention time: 665 s

CCCN(C)C[C@@H]1CC(F)(F)CN1C1CCN(S(=O)(=O)c2ccc(C)cc2C)CC1
RP-LC retention time: 788 s

CC(C)c1nc2cccnc2n1CCN1CCN(C(=O)Nc2ccc(F)cc2F)CC1
RP-LC retention time: 589 s

Cc1ccccc1OCCCC(=O)Nc1nc(-c2ccc(Br)cc2)cs1
RP-LC retention time: 1280 s

CN1C(=O)CCc2cc(NC(=O)Cc3c(F)cccc3Cl)ccc21
RP-LC retention time: 784 s

CCC(=O)N1CCCN(C2=NS(=O)(=O)C(c3ccc(C)cc3)=C2C)CC1
RP-LC retention time: 742 s

O=C(c1nnc(-c2csc(S(=O)(=O)N3CCN(c4ccccn4)CC3)c2)o1)N1CCCCC1
RP-LC retention time: 709 s

O=C1CC(/C=C/c2ccccc2)Cc2nc(N3CCN(c4ccccn4)CC3)ncc21 (configuration not stated)
RP-LC retention time: 754 s

COc1ccc(CC(=O)NCCc2nc3cccnc3n2C)cc1
RP-LC retention time: 581 s

CCCS(=O)(=O)c1nc2ccc(NS(=O)(=O)c3cc(F)cc(F)c3)cc2s1
RP-LC retention time: 952 s

Cc1ccc2oc(-c3noc(C(=O)NCc4cccs4)n3)c(C)c2c1
RP-LC retention time: 1150 s

CCn1c(=O)oc2cc(S(=O)(=O)N3CCC(CC(=O)N4c5ccccc5CC4C)CC3)ccc21 (configuration not stated)
RP-LC retention time: 1010 s

COc1ncccc1C(=O)Nc1onc2c1CSC2
RP-LC retention time: 642 s

CCn1c(C(=O)NCc2ccc(OC)cc2)cc2sc(Cl)cc21
RP-LC retention time: 1130 s

CCc1noc(NC(C)=O)c1-c1ccc(OC)c(S(=O)(=O)NC2CCCCC2)c1
RP-LC retention time: 804 s

CCCN(CCC)[C@@H]1CCc2c(OC)cccc2[C@@H]1C
RP-LC retention time: 802 s

Cc1[nH]c(C(=O)N2CCC(CC(=O)N3CCCC3)CC2)c(C)c1C(=O)OC(C)C
RP-LC retention time: 735 s

CCN1CCN(C(=O)C2CCN(c3nc4ccc(-c5cccs5)nc4s3)CC2)CC1
RP-LC retention time: 586 s

CC1CCCN(CCCNC(=O)c2cccc3c2SCCC3=O)C1 (configuration not stated)
RP-LC retention time: 590 s

Cc1cccc(NC(=O)Cn2cnc3c(sc4nc(-c5ccccc5)ccc43)c2=O)c1C
RP-LC retention time: 1020 s

CN1C(=O)CC[C@]2(CNC(=O)COc3cccc(Cl)c3)CCC[C@@H]12
RP-LC retention time: 727 s

CCOC(=O)CCC(=O)Nc1cc(C)nn1-c1nc(-c2ccc(F)cc2)cs1
RP-LC retention time: 1100 s

CCOC(=O)c1cc(S(=O)(=O)N2CCCC2C(=O)Nc2cccc(C)n2)cn1C (configuration not stated)
RP-LC retention time: 847 s

CCN1CCN(C(=O)Cc2c(C)nn(-c3nc(-c4ccc(C)cc4)cs3)c2C)CC1
RP-LC retention time: 730 s

COc1ccc(NC(=O)c2cc(C)n3nc(-c4ccco4)cc3n2)cc1F
RP-LC retention time: 1060 s

O=C(NCc1ccc(F)cc1Cl)C1CCCN(c2nn3c(=O)c4c(nc3s2)CCCC4)C1 (configuration not stated)
RP-LC retention time: 827 s

CC(C)N1C(=O)c2cccnc2Sc2cc(NC(=O)Cc3ccsc3)ccc21
RP-LC retention time: 823 s

CCC1CCCCN1C(=O)c1ccc(-c2nnc3ccc(NC(=O)C4CCC4)cn23)cc1 (configuration not stated)
RP-LC retention time: 870 s

CN1CCN(c2ncc3c(n2)CC(c2cc(F)cc(F)c2)CC3=O)CC1 (configuration not stated)
RP-LC retention time: 660 s

CCc1nc2cc(N3CCCC(C(=O)NCC4CCCO4)C3)cnc2nc1CC (configuration not stated)
RP-LC retention time: 694 s

Cc1ccc(-c2noc(-c3ccc(N4CCN(Cc5ccc6c(c5)OCO6)CC4)nc3)n2)cc1
RP-LC retention time: 874 s

Cc1csc(-n2nc(C)c(CC(=O)Nc3ccccc3Cl)c2C)n1
RP-LC retention time: 1010 s

O=C(O)c1ccc(OCC(=O)C2CC2)cc1
RP-LC retention time: 636 s

COc1cc([C@@H]2c3cc4c(cc3[C@@H](O)[C@H]3COC(=O)[C@H]23)OCO4)cc(OC)c1O
RP-LC retention time: 680 s

CCCN1C(=O)c2cc(S(=O)(=O)Nc3ccc(OC)cc3)ccc2Oc2cccnc21
RP-LC retention time: 1030 s

O=C(O)c1ccc2c(c1)nc(Nc1cccc(Cl)c1)c1ccncc12
RP-LC retention time: 845 s

CCCNC(=O)Cc1cn2cc(Br)ccc2n1
RP-LC retention time: 570 s

COc1ccc(-c2cn3c(CC(=O)NC4CC4)csc3n2)cc1OC
RP-LC retention time: 607 s

Cc1ccnc(N2CCC(C(=O)Nc3ccc(Br)cc3F)CC2)n1
RP-LC retention time: 811 s

c1nc2c(c(NCc3ccc4c(c3)OCO4)n1)CCC2
RP-LC retention time: 606 s

COc1cc([C@@H]2c3cc4c(cc3[C@H](O)[C@@H](CO)[C@@H]2C(=O)NCc2ccc3c(c2)OCO3)OCO4)cc(OC)c1OC
RP-LC retention time: 709 s

COc1ccc(-c2noc(Cn3ccn(-c4c(C)cccc4C)c(=O)c3=O)n2)cc1
RP-LC retention time: 870 s

O=C(NCCCN1CCCCC1)C1CCCN(c2cnc3nccnc3c2)C1 (configuration not stated)
RP-LC retention time: 560 s

NS(=O)(=O)c1ccc(NS(=O)(=O)c2ccc3onc(C(=O)N4CCCCC4)c3c2)cc1
RP-LC retention time: 782 s

Cc1c(-c2noc(-c3ccc(F)c(F)c3)n2)nnn1Cc1ccccc1
RP-LC retention time: 1090 s

CC(C)c1nnc2n1CCN(C(=O)COc1ccc(Cl)cc1)C2
RP-LC retention time: 692 s

Cc1cc(C(=O)N2CC(c3nc(-c4ccccn4)no3)C2)no1
RP-LC retention time: 639 s

Cc1ccc(-c2cc(C(=O)N3CCC(NC(=O)c4ccc5c(c4)OCO5)CC3)[nH]n2)c(C)c1
RP-LC retention time: 787 s

COCc1nnc(C(=O)Nc2ccc(C(=O)NCCc3c[nH]c4ccc(OC)cc34)cc2)s1
RP-LC retention time: 790 s

CCCn1c(=O)sc2cc(S(=O)(=O)N3CCC(C(=O)Nc4cccc(C)c4)CC3)ccc21
RP-LC retention time: 1010 s

Cc1[nH]nc(-c2ccc(S(=O)(=O)N3CCOCC3)o2)c1C
RP-LC retention time: 707 s

CCOc1ccc(S(=O)(=O)N2CCC(C(=O)NCCCOC)CC2)cc1C
RP-LC retention time: 789 s

Cc1cccc2nnc(N3CCCC(C(=O)Nc4ccc5c(c4)OCO5)C3)n12 (configuration not stated)
RP-LC retention time: 664 s

COc1ccc(-c2cc(C(=O)NC3CCCCC3)nn2C2CCS(=O)(=O)C2)cc1 (configuration not stated)
RP-LC retention time: 885 s

CN(C)C[C@@H]1CN(c2ncccn2)C[C@H]1NC(=O)c1ccc2ncccc2c1
RP-LC retention time: 557 s

O=S(=O)(c1cccc(F)c1)N1CC(n2cc(COc3ccc(F)cc3)nn2)C1
RP-LC retention time: 923 s

CN(C)c1ccc(CNC(=O)c2cc(=O)n3c(nc4ccccc43)s2)cc1
RP-LC retention time: 805 s

O=C(Cn1ccn2nc(-c3ccc(F)cc3)c(CO)c2c1=O)Nc1ccc(F)c(F)c1
RP-LC retention time: 865 s

Cc1ccc(NC(=O)C2CCCN(C(=O)C3Sc4ccccc4NC3=O)C2)c(C)c1 (configuration not stated)
RP-LC retention time: 762 s

O=C(NCCc1ccccc1)C1CCCN(C(=O)c2cc(-c3ccccn3)n[nH]2)C1 (configuration not stated)
RP-LC retention time: 705 s

CCN1C(=O)c2cccnc2Sc2cc(NC(=O)CCc3cccc(OC)c3)ccc21
RP-LC retention time: 855 s

COc1ccc(OC)c(NC(=O)C2c3cc(OC)c(OC)cc3C(=O)N(C)C2c2cccnc2)c1 (configuration not stated)
RP-LC retention time: 605 s

O=C(CCc1nnn2c1CN(C(=O)c1ccoc1)CC2)N1CCOCC1
RP-LC retention time: 580 s
